In the RepoRT retention time repository one finds LC retention time data, which are given here for 88 compounds.

The nature of this data set: HILIC, Waters ACQUITY UPLC BEH Amide, 100 × 2.1 mm, 1.7 µm; A: water + 0.125% formic acid + 10 mM ammonium formate; B: 5% water + 95% acetonitrile + 0.125% formic acid + 10 mM ammonium formate; gradient (min/%B) 0/100 2/100 7.7/70 9.5/40 10.25/30 12.75/100 17/100. Particulars: stereoisomer not certain.
As to `CC12CC3CC(C)(C1)CC(N)(C3)C2` [Memantine], the LC retention time worked out at 4.24 min.
For `COc1cc(C)nc(-n2nc(C)cc2OC)n1` [Mepirizole], the LC retention time is 1.03 min.
Next, `Cc1cccc(C)c1NC(=O)C1CCCCN1C` (stereo not drawn) [Mepivacaine]: 2.96 min; `CCCC(C)(COC(N)=O)COC(N)=O` [Meprobamate]: 1.25 min; `CN1CCCCC1CCN1c2ccccc2Sc2ccc(S(C)=O)cc21` (stereo not drawn) [Mesoridazine]: 4.24 min.
The value for `CN(C)C(=N)N=C(N)N` [Metformin] was 5.44 min; that for `CCC(=O)C(CC(C)N(C)C)(c1ccccc1)c1ccccc1` (stereo not drawn) [Methadone] was 2 min; that for `CNC(C)Cc1ccccc1` (stereo not drawn) [Methamphetamine] was 3.33 min.
The value for `Cc1ccccc1-n1c(C)nc2ccccc2c1=O` [Methaqualone] was 1.1 min.
For the compound `CSCCC(N)C(=O)O` (stereo not drawn) [Methionine], the LC retention time came to 7.37 min.
Next, `CS(=O)CCC(N)C(=O)O` (stereo not drawn) [Methioninesulfoxide]: 8.62 min.
Next, `C=CCC1(C(C)C#CCC)C(=O)NC(=O)N(C)C1=O` (stereo not drawn) [Methohexital]: 6.9 min.
Next, `CN(Cc1cnc2nc(N)nc(N)c2n1)c1ccc(C(=O)NC(CCC(=O)O)C(=O)O)cc1` (stereo not drawn) [Methotrexate]: 7.67 min.
`COc1ccc(OC)c(C(O)C(C)N)c1` (stereo not drawn) [Methoxamine]: the LC retention time was 4.75 min.
Next, `CCC=CCC1C(=O)CCC1CC(=O)OC` (stereo not drawn) [Methyl jasmonate]: 1.04 min; `CC(O)C(C)C(=O)O` (stereo not drawn) [Methyl-3-hydroxybutyric acid]: 6.22 min.
Next, `COC(=O)c1cc(O)c(O)c(O)c1` [Methylgallate]: 1.43 min; `COC(=O)CN` [Methylglycinate]: 5.29 min.
The value for `CC12CCC(=O)C=C1CCC1C2CCC2(C)C1CCC2(C)O` (stereo not drawn) [Methyltestosterone] was 1.04 min; that for `COC(=O)C(N)Cc1ccc(O)cc1` (stereo not drawn) [Methyltyrosinate] was 4.23 min.
Consider `CCC1(CC)C(=O)NCC(C)C1=O` (stereo not drawn) [Methyprylon], for which the LC retention time worked out at 1.18 min.
In the case of `Cc1ncc([N+](=O)[O-])n1CCO` [Metronidazole], the LC retention time worked out at 1.17 min.
Next, `CCC(C)C(=O)OC1CCC=C2C=CC(C)C(CCC3CC(O)CC(=O)O3)C21` (stereo not drawn) [Mevastatin]: 0.99 min; `Cc1ncc2n1-c1ccc(Cl)cc1C(c1ccccc1F)=NC2` [Midazolam]: 1.29 min; `CC#CC1(O)CCC2C3CCC4=CC(=O)CCC4=C3C(c3ccc(N(C)C)cc3)CC21C` (stereo not drawn) [Mifepristone]: 1 min.
For `OCCN1CC(O)C(O)C(O)C1CO` (stereo not drawn) [Miglitol], the LC retention time came out at 8.12 min.
Regarding `CCN(CC)C(=O)C1(c2ccccc2)CC1CN` (stereo not drawn) [Milnacipran], the LC retention time amounted to 3.23 min.
Next, `Cc1[nH]c(=O)c(C#N)cc1-c1ccncc1` [Milrinone]: 1.6 min.
The value for `CN1CCN2c3ncccc3Cc3ccccc3C2C1` (stereo not drawn) [Mirtazapine] was 3.08 min; that for `O=C(NCCN1CCOCC1)c1ccc(Cl)cc1` [Moclobemide] was 2.03 min.
Next, `NC(=O)CS(=O)C(c1ccccc1)c1ccccc1` (stereo not drawn) [Modafinil]: 1.27 min; `CCCCCCCCC=CCCCCCCCC(=O)OCC(O)CO` (stereo not drawn) [Monoolein]: 1.19 min.
For `CCOc1cc(N)c(Cl)cc1C(=O)NCC1CN(Cc2ccc(F)cc2)CCO1` (stereo not drawn) [Mosapride], the LC retention time is 1.24 min.
Turning to `COc1c(N2CC3CCCNC3C2)c(F)cc2c(=O)c(C(=O)O)cn(C3CC3)c12` (stereo not drawn) [Moxifloxacin], the LC retention time came to 4.69 min.
Next, `COc1nc(C)nc(Cl)c1NC1=NCCN1` [Moxonidine]: 3.28 min; `CC(OC1C(N)C(O)OC(CO)C1O)C(=O)O` (stereo not drawn) [Muramic acid]: 8.28 min; `CN(C)c1nc2c(ncn2C2OC(CO)C(O)C2O)c(=O)[nH]1` (stereo not drawn) [N2,N2-Dimethylguanosine]: 5.62 min.
The value for `CNc1nc2c(ncn2C2OC(CO)C(O)C2O)c(=O)[nH]1` (stereo not drawn) [N2-Methylguanosine] was 6.4 min; that for `CC(C)=CCNc1ncnc2c1ncn2C1OC(CO)C(O)C1O` (stereo not drawn) [N6-Isopentenyladenosine] was 1.48 min.
For `CC(=O)NCCCCNCCCN` [N8-Acetylspermidine], the LC retention time came out at 8.87 min.
Next, `CN(C)C(CCCN=C(N)N)C(=O)O` (stereo not drawn) [N,N-Dimethylarginine]: 9.1 min; `CN(C)C=O` [N,N-Dimethylformamide]: 1.29 min.
Consider `CN(C)CC(=O)O` [N,N-Dimethylglycine], for which the LC retention time stood at 7.4 min.
Next, `CC(=O)Nc1ccc2c(c1)Cc1ccccc1-2` [N-2-Fluorenylacetamide]: 4.74 min; `OCC1OC(n2cnc3c(NC4CCCC4O)ncnc32)C(O)C1O` (stereo not drawn) [N-2-Hydroxycyclopentyladenosine]: 3.48 min; `O=C(O)CNC(=O)c1ccco1` [N-(2-Furoyl)glycine]: 4.01 min.
Next, `CC(=O)NC(CCCN=C(N)N)C(=O)O` [N-.alpha.-Acetyl-L-arginine]: 8.16 min.
`CC(=O)NCCc1c[nH]c2ccc(O)cc12` [N-Acetyl-5-hydroxytryptamine]: the LC retention time amounted to 1.43 min.
The value for `CC(=O)NC(CC(=O)O)C(=O)NC(CCC(=O)O)C(=O)O` (stereo not drawn) [N-Acetyl-Asp-Glu] was 8.11 min; that for `CC(=O)NCCC(=O)NC(Cc1cnc[nH]1)C(=O)O` [N-Acetyl-L-carnosine] was 8.35 min; that for `CC(=O)N[C@@H](CCC(N)=O)C(=O)O` [N-Acetyl-L-glutamine] was 8.18 min.
Next, `CC(=O)NC(C)C(=O)O` (stereo not drawn) [N-Acetylalanine]: 4.83 min.
On to `CC(=O)N1CCCCCC1=O` [N-Acetylcaprolactam], for which the LC retention time came to 2.3 min.
The value for `CC(=O)NC(CS)C(=O)O` (stereo not drawn) [N-Acetylcysteine] was 5.28 min; that for `CC(=O)Nc1ccn(C2OC(CO)C(O)C2O)c(=O)n1` (stereo not drawn) [N-Acetylcytidine] was 5.08 min.
On to `CC(=O)NC(CCC(=O)O)C(=O)O` (stereo not drawn) [N-Acetylglutamic acid], for which the LC retention time stood at 7.67 min.
Consider `CC(=O)NC(Cc1cnc[nH]1)C(=O)O` (stereo not drawn) [N-Acetylhistidine], for which the LC retention time was found to be 8.07 min.
On to `CC(=O)NC(CC(C)C)C(=O)O` (stereo not drawn) [N-Acetylleucine], for which the LC retention time was 2.29 min.
With `CC(=O)NC1C(O)OC(CO)C(O)C1O` (stereo not drawn) [N-Acetylmannosamine], the LC retention time is 7.01 min.
Consider `CSCCC(NC(C)=O)C(=O)O` (stereo not drawn) [N-Acetylmethionine], for which the LC retention time was 3.23 min.
On to `CC(=O)NC1C(O)CC(O)(C(=O)O)OC1C(O)C(O)CO` (stereo not drawn) [N-Acetylneuraminic acid], for which the LC retention time was determined as 9.26 min.
For the compound `CC(=O)NC(Cc1ccccc1)C(=O)O` (stereo not drawn) [N-Acetylphenylalanine], the LC retention time worked out at 2.61 min.
Turning to `CC(=O)NC(CO)C(=O)O` (stereo not drawn) [N-Acetylserine], the LC retention time stood at 7.67 min.
Next, `CC(=O)NC(Cc1c[nH]c2ccccc12)C(=O)O` (stereo not drawn) [N-Acetyltryptophan]: 2.81 min.
Next, `O=C(O)CNC(=O)OCc1ccccc1` [N-Benzyloxycarbonylglycine]: 7.67 min; `CC(C)CC(NC(=O)OCc1ccccc1)C(=O)O` (stereo not drawn) [N-Carbobenzyloxyleucine]: 1.28 min; `O=C(O)CNC(=O)C=Cc1ccccc1` [N-Cinnamoylglycine]: 2.95 min.
On to `O=CNC1CCCCC1` [N-Cyclohexylformamide], for which the LC retention time came to 1.2 min.
Next, `CSCCC(NC=O)C(=O)O` (stereo not drawn) [N-Formylmethionine]: 3.93 min.
As for `CC(C)C(=O)NCC(=O)O` [N-Isobutyrylglycine], the LC retention time came out at 3.6 min.
`CC(C)CC(=O)NCC(=O)O` [N-Isovalerylglycine]: the LC retention time stood at 2.94 min.
As for `CNC(C)C(=O)O` (stereo not drawn) [N-Methylalanine], the LC retention time amounted to 7.67 min.
The value for `CNc1ccccc1` [N-Methylaniline] was 1.06 min.
The value for `CNc1ccccc1C(=O)O` [N-Methylanthranilic acid] was 1.22 min; that for `CNC(CC(=O)O)C(=O)O` (stereo not drawn) [N-Methylaspartic acid] was 2.53 min; that for `CNC(CCC(=O)O)C(=O)O` (stereo not drawn) [N-Methylglutamic acid] was 8.32 min.
In the case of `CNC(Cc1cnc[nH]1)C(=O)O` (stereo not drawn) [N-Methylhistidine], the LC retention time amounted to 9.47 min.
Next, `CCC(C)C(NC)C(=O)O` (stereo not drawn) [N-Methylisoleucine]: 6.44 min; `CNC(CC(C)C)C(=O)O` (stereo not drawn) [N-Methylleucine]: 6.45 min.
On to `CNCCCCC(N)C(=O)O` (stereo not drawn) [N-Methyllysine], for which the LC retention time came out at 9.36 min.
For `CN1CCC(c2ccc(F)cc2)C(COc2ccc3c(c2)OCO3)C1` (stereo not drawn) [N-Methylparoxetine], the LC retention time was 2.2 min.
Next, `CNC(Cc1ccccc1)C(=O)O` (stereo not drawn) [N-Methylphenylalanine]: 6.22 min.
Turning to `CN1CCCC1C(=O)O` (stereo not drawn) [N-Methylproline], the LC retention time came to 7.11 min.
The value for `CNC(C(=O)O)C(C)O` (stereo not drawn) [N-Methylthreonine] was 7.68 min; that for `CNC(Cc1ccc(O)cc1)C(=O)O` (stereo not drawn) [N-Methyltyrosine] was 6.79 min; that for `CNC(C(=O)O)C(C)C` (stereo not drawn) [N-Methylvaline] was 6.99 min.
Turning to `CC(=O)NC(CCCN)C(=O)O` [N-alpha-Acetyl-L-ornithine], the LC retention time came out at 8.31 min.
The value for `CNCCc1cnc[nH]1` [N-alpha-methylhistamine] was 7.48 min.
